Where two headings read alike, the source gives them in different places.
Tests used:
[1] = biological target: T1, CSR3 (RNase III of SPCSV) (Sweet potato chlorotic stunt virus, UniProt Q8JJW8); assay: Kinetic-based HTS (FRET, labeled 22-bp siRNA cleavage), one concentration; format: biochemical; conditions: compound 10 μM, 375 nM siRNA, 37°C
Text: Based on the catalytic activity of CSR3 on 22-bp siRNA, our kinetic-based HTS assay was designed using distance-dependent FRET technology. Specifically, one strand of siRNA, as a substrate, was labeled with a fluorescent dye (6-carboxyfluorescein [FAM]) at the 5′ end and a quencher (black hole quencher 1 [BHQ1]) at the 3′ end. The initial reaction rate of CSR3 was quantified using the slope of raw fluorescence under an excitation/emission spectrum at 485/520 nm (Fig. 3A). […] In this study, a total of 6,622 compounds (including 6,400 selected from Glide docking and 222 empirically selected compounds for preliminary assay setup) were screened using kinetic-based HTS at a final concentration of 10 μM. All 384-well screening plates contained 32 negative (with CSR3 [i.e., the substrate was successfully cleaved]) and 32 positive (without CSR3 [i.e., the substrate remained intact]) control reaction mixtures. To evaluate the quality of the HTS assay, the Z-factor (Z′) parameter was calculated using the reaction rates of the positive and negative controls ([30]). […]
The HTS assay was designed based on FRET using a 22-bp siRNA (forward sequence, […]; reverse sequence, […]) with a 2-nucleotide (nt) 3′ overhang labeled with the fluorescent dye 6-carboxyfluorescein (FAM) and a black hole quencher (BHQ1) on the sense strand (Metabion, Munich, Germany). […] The plates were read with a PHERAstar FS reader (BMG Labtech, Ortenberg, Germany).
(§1) For HTS, the activity of CSR3 was calculated by measuring the change in fluorescence as a function of the reaction time using MARS Data Analysis software (BMG Labtech). To evaluate the CSR3 inhibition efficiency of individual compounds, the PI of each compound was calculated using the slope values for the sample, positive control, and negative control according to the following equation: PI = 100 × [1 − (sample − positive)/(negative − positive)]%. IC50 and DSS values were calculated using concentration-specific PI values according to a previous study ([31]). Relative gene expression was calculated using the classical 2^−ΔΔ^CT method ([63]).

[2] = biological target: T1, CSR3 (RNase III of SPCSV); assay: Kinetic-based FRET dose-response assay (IC50, DSS); format: biochemical; conditions: for DSS Comm 1 / DSS FIMM1 / DSS FIMM 2: drug sensitivity score; for DSS Comm 1: repeat Comm 1; for DSS FIMM1: repeat FIMM 1; for DSS FIMM 2: repeat FIMM 2
Protocol: A dose-response assay with six concentrations (1.25 nM to 50 μM) was carried out in three independent experiments, which included two tests with the 112 selected FIMM compounds (i.e., compounds prepared by the HTB-FIMM) and one test using the newly ordered commercial compounds (99 of the 112 compounds, i.e., compounds prepared by a second supplier). A dose-response curve was generated for each compound based on PI values as a function of the concentration.
The HTS assay was designed based on FRET using a 22-bp siRNA (forward sequence, […]; reverse sequence, […]) with a 2-nucleotide (nt) 3′ overhang labeled with the fluorescent dye 6-carboxyfluorescein (FAM) and a black hole quencher (BHQ1) on the sense strand (Metabion, Munich, Germany). Screening was initially carried out at one concentration (10 μM) in a 20-μl reaction buffer. […] All reaction mixtures contained 50 nM CSR3 and 375 nM labeled siRNA in 384-well black flat-bottom microplates (Corning, NY, USA) and were prepared using a BioTek MultiFlo FX dispenser with single-channel random access dispenser cassettes (BioTek, Winooski, VT, USA). The plates were read with a PHERAstar FS reader (BMG Labtech, Ortenberg, Germany).
as §1

CSR3 [3] = biological target: T2, CSR3 (Sweet potato chlorotic stunt virus, UniProt Q8JJW8); assay: Binding affinity assay using MST; conditions: Table S4; for Binding (Yes/No): MST binding call; for Response Amplitude: MST response amplitude
T2 sequence (Q8JJW8 1-228): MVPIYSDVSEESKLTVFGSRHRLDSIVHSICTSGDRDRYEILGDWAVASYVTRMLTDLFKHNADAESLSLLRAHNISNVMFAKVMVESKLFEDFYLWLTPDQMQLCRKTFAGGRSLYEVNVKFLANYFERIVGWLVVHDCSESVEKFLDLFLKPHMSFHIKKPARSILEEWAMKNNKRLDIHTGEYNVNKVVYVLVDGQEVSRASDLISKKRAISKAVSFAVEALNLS
Protocol: (§2) Binding affinity assays were first carried out with the 99 commercial compounds using the MST method.
The labeled-protein solution containing 500 nM proteins and 40 nM dye was prepared in PBS buffer with 2% dimethyl sulfoxide (DMSO) for the assay. The 12 concentrations for each compound were obtained by 2-fold serial dilutions (0.2 μM to 400 μM). […] Two independent experiments were carried out in premium coated capillaries (NanoTemper, Munich, Germany) using a Monolith NT.Automated instrument (NanoTemper) with the power set at high (80%), the light-emitting diode (LED) power (pico red) set at 5%, and the on-time set at 20 s. The dissociation constant (Kd) was determined using the MO.Affinity Analysis program (NanoTemper).

CSR3 [4] = biological target: T2, CSR3; assay: Binding affinity assay using SPR; conditions: SPR dose-response 3 μM to 200 μM, 25°C; unit inferred, numbers match M (cf. Fig 5A); read-out: Steady State Affinity
Protocol: as §2
CSR3 was purified as described above and stored in PBS buffer. SPR was performed on a BiacoreT100 instrument (GE Healthcare) using a sensor S CM5 chip (GE Healthcare). CSR3 (10 ng/μl) was immobilized using the standard amine-coupling method according to the manufacturer’s instructions with immobilization buffer (10 mM sodium acetate [pH 4]); the final response unit (RU) value was 11,459. Compounds at a single concentration (100 μM) or consisting of 2-fold serial dilutions (3 μM to 200 μM) were flowed over the sensor surface using PBS buffer with 0.01 M HEPES, 0.05% surfactant P20, and 2% DMSO. […] To eliminate bulk interference by DMSO, a solvent correction consisting of DMSO at concentrations ranging from 1.5% to 2.8% was carried out for every 30 samples. Steady-state affinity (KD) values were determined using BiacoreT100 Evaluation software, v.2.04 (GE Healthcare).

[5] = biological target: RNase III of Sweet potato chlorotic stunt virus (CSR3), His-tagged full-length (Sweet potato chlorotic stunt virus (SPCSV)); assay: native gel or EMSA; native Western blotting of purified CSR3, detected with rabbit polyclonal antibodies against CSR3; monomer to dimer
SPFMV [6] = assay: Virus accumulation (RT-qPCR of coat protein RNA) in coinfected sweetpotato plants grown in culture medium: SPFMV; format: in vivo, Sweet potato feathery mottle virus
Protocol: (§3) Since tests in culture medium consume smaller amounts of compounds and can be carried out under relatively controlled conditions, sweetpotato plants coinfected with SPCSV and SPFMV were grown in medium supplemented with one of the 30 inhibitor candidates at a concentration of 50 μM. Their effects on plant growth were monitored by imaging the plants once a week. […] In addition, virus accumulation was quantified by measuring the relative abundance of the transcripts encoding viral coat proteins using RT-qPCR ([32]). The effect of individual compounds on virus accumulation was estimated by comparing treated and control plants.
(§4) Sweetpotato plants cultivar 'Huachano' (accession CIP420065) were side-graft inoculated with both SPFMV (East African strain isolate Nam1) and SPCSV-Ug (East African serotype 2) as described previously ([62]). Plantlets were propagated by taking single-node stems grown in a plant culture medium ([33]). Next, plantlets with newly formed roots were transferred to glass tubes (18 by 150 mm) containing 10 ml of medium supplemented with either 50 μM compound (diluted in DMSO; final DMSO concentration, 0.1%) or only 0.1% DMSO as a control. For plant experiments in soil, plantlets were transferred to pots (6 by 6 by 10 cm) filled with a mixture of sand, humus, and washed soil. After 1 week, plants were treated by foliar spraying using either individual compounds at a single concentration (10 μM) (treatment) or water (control/mock) twice a week for 1 month. All plants were grown at 22°C with 60% humidity and a 16-h light/8-h dark photoperiod for 28 days in culture medium and for 41 days in soil. The Finnish National Plant Phenotyping Infrastructure (NaPPI) was used to monitor plant viral disease symptoms as described in our previous study ([33]). Four compounds were tested with the phenotyping platform in two independent batches, each of which included five biological replicates.
(§5) Leaf samples were collected from plants grown in culture medium or soil for 28 or 41 days, respectively, and frozen in liquid nitrogen. Total RNA was extracted using the Spectrum plant total RNA kit (Sigma-Aldrich). First-strand cDNA was synthesized using the Transcriptor first-strand cDNA synthesis kit (Roche, Basel, Switzerland). […] All RT-qPCR experiments were conducted in triplicate on three and five biological replicates from plants grown in culture medium and soil, respectively. The primer list can be found in our previous study ([33]).
as §1

SPCSV [7] = assay: Virus accumulation (RT-qPCR of coat protein RNA) in coinfected sweetpotato plants grown in culture medium: SPCSV; format: in vivo, Sweet potato chlorotic stunt virus
Protocol: as §3, §4, §5, §1

SPCSV [8] = conditions: plants in soil, 10 μM foliar spray twice a week for 1 month, vs water-treated
Protocol: (§6) Compounds were administered by regular foliar spray over 1 month.
as §4
(§7) Leaf samples were collected from plants grown in culture medium or soil for 28 or 41 days, respectively, and frozen in liquid nitrogen. Total RNA was extracted using the Spectrum plant total RNA kit (Sigma-Aldrich). First-strand cDNA was synthesized using the Transcriptor first-strand cDNA synthesis kit (Roche, Basel, Switzerland). Gene expression was measured in a final volume of 10 μl (containing 2 μl 10-fold-diluted cDNA, 5 μl SYBR green I master mix [Roche], and 2.5 μM primers) using the LightCycler 480 instrument II (Roche). All RT-qPCR experiments were conducted in triplicate on three and five biological replicates from plants grown in culture medium and soil, respectively. The primer list can be found in our previous study ([33]).
as §1

SPFMV [9] = conditions: plants in soil, 10 μM foliar spray twice a week for 1 month, vs water-treated
Protocol: as §6, §4, §7, §1

sweetpotato plants = conditions: 50 μM in culture medium
[10] = system: human enzymes or bacterial proteins; parameters: method as in earlier work; conditions: ref PubChem https://pubchem.ncbi.nlm.nih.gov/compound/7114450#section=Biological-Test-Results; cited from earlier work
[11] = kinetic-based HTS, Fig 5A summary
[12] = 50 μM in culture medium, 28 days, relative to DMSO control
[13] = plants in culture medium, 50 μM

## Cc1ccc(C)c(C(=O)CSc2nnc[nH]2)c1 [FIMM027745]
[1]
  PI values (percentage of inhibition): 98.0616%
[2]
  DSS Comm 1: 1.9
  DSS FIMM1: 19.2
  DSS FIMM 2: 16.7
[2]; repeat Comm 1 (commercial compounds), 1.25 nM to 50 μM, unit inferred, numbers match nM, read-out: IC50 Comm 1
  IC50: 14900 nM
[2]; repeat FIMM 1 (FIMM library compounds), 1.25 nM to 50 μM, unit inferred, numbers match nM (cf. Fig 5A), read-out: IC50 FIMM1
  IC50: 647 nM
[2]; repeat FIMM 2 (FIMM library compounds), 1.25 nM to 50 μM, unit inferred, numbers match nM, read-out: IC50 FIMM 2
  IC50: 1120 nM
CSR3 [3]
  Binding (Yes/No): No
  Response Amplitude: 0
CSR3 [4]
  Kd: 13 µM

## RNase III of Sweet potato chlorotic stunt virus (CSR3), His-tagged full-length (enzyme)
[5]
  stoichiometry N: 2

## O=C(O)c1ccc2c(c1)C1C=CCC1C(c1ccccc1)N2 (stereo not shown) [FIMM005536]
[2]
  DSS Comm 1: 12.4
  DSS FIMM1: 12.5
  DSS FIMM 2: 12.1
[2]; [11]
  DSS: 12.5
  IC50: ~2740 nM
[2]; read-out: IC50 Comm 1, repeat Comm 1 (commercial compounds), 1.25 nM to 50 μM, unit inferred, numbers match nM
  IC50: 2880 nM
[2]; read-out: IC50 FIMM1, repeat FIMM 1 (FIMM library compounds), 1.25 nM to 50 μM, unit inferred, numbers match nM (cf. Fig 5A)
  IC50: 2750 nM
[2]; read-out: IC50 FIMM 2, repeat FIMM 2 (FIMM library compounds), 1.25 nM to 50 μM, unit inferred, numbers match nM
  IC50: 2930 nM
CSR3 [3]
  Binding (Yes/No): No
  Response Amplitude: 0
SPFMV [6]; [12]
  SPFMV_FC (fold change of viral accumulation): 0.2931
SPFMV [6]; [13]
  SPFMV accumulation reduced: ~4 fold
  viral titer SPFMV (log2 fold change relative to controls): −1.77
SPCSV [7]; [12]
  SPCSV_FC (fold change of viral accumulation): 0.1274
SPCSV [7]; [13]
  SPCSV accumulation reduced: approximately 8 fold
  viral titer SPCSV (log2 fold change relative to controls): −2.97
SPCSV [8]
  log2 fold change in coat protein expression of SPCSV: −1.67
SPFMV [9]
  log2 fold change in coat protein expression of SPFMV: −1.36
Sweetpotato plants
  Toxicity: no
[10]
  activity in inhibitor screens for human enzymes or bacterial proteins: inactive

Source: publication PMC8315922, “In Vitro Identification and In Vivo Confirmation of Inhibitors for Sweet Potato Chlorotic Stunt Virus RNA Silencing Suppressor, a Viral RNase III” (Journal of Virology, 2021)
